Read-outs that look alike come from different tables or passages of the source.
What was measured:
HIV = test: microbe, parasite or virus in culture; type: cell-based, HIV-1
A549 cells [1] = settings: human, 2 days
A549 cells [2] = test: Cytotoxicity evaluation using the SRB assay; settings: Table 1; inhibition of cell growth of host A549 cells by 50%; triplicate
HIV clinical strains = settings: background statement; read-out: EC50 against broad HIV clinical strains; cited from earlier work

Structure (SMILES) | EC50 (HIV) | CC50 (A549 cells [1]) | CC50 (A549 cells [2]) | EC50 (HIV; read-out: EC50) | EC50 (HIV clinical strains)
COc1cc2c(OC3OCC(O)(CO)C3O)c3c(c(-c4cc5c(cc4O)OCO5)c2cc1OC)C(=O)OC3 (single isomer, unassigned) [Compound 48] | > 25 µM | > 25 µM |  |  | 
COc1cc2c(OC3OCC(O)(CO)C3OC3OCC(O)C(O)C3O)c3c(c(-c4cc5c(cc4O)OCO5)c2cc1OC)C(=O)OC3 (single isomer, unassigned) [Compound 50] | 23.1 µM | > 25 µM |  |  | 
COc1cc2c(OC3OCC(O)(COC4OCC(O)C(O)C4O)C3OC3OCC(O)C(O)C3O)c3c(c(-c4cc5c(cc4O)OCO5)c2cc1OC)C(=O)OC3 (single isomer, unassigned) [Compound 52] | > 25 µM |  | > 25 µM |  | 
COc1cc2c(OC3OCC(O)(COC4OCC(O)C(O)C4O)C3OC3OCC(O)C(OC4OCC(O)(CO)C4O)C3O)c3c(c(-c4cc5c(cc4O)OCO5)c2cc1OC)C(=O)OC3 (single isomer, unassigned) [Compound 54] | > 25 µM | > 25 µM |  |  | 
COc1cc2c(O[C@@H]3OC[C@](O)(CO)[C@H]3O)c3c(c(-c4ccc5c(c4)OCO5)c2cc1OC)C(=O)OC3 [Tuberculatin (1), tuberculatin] |  |  | 3.27 µM | 0.22 µM | 
Cc1cn([C@H]2C[C@H](N=[N+]=[N-])[C@@H](CO)O2)c(=O)[nH]c1=O [Zidovudine (AZT), Zidovudine] |  |  |  |  | 0.077 to 0.095 µM
